This series has as its system rodent carcinogenicity bioassays, tumor incidence. The series can be described thus: CCRIS carcinogenicity studies. In outline:
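Archive of carcinogenicity, mutagenicity, tumor promotion and tumor inhibition results drawn from journals, NCI reports and other sources, expert-reviewed; covers 1985-2011 and is no longer updated.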

Molecules are shown by their SMILES. Calls of active or inactive are those of the source. No rule for the calls is given here.

`CN(C)c1ccc(N=Nc2ccccc2)cc1`: the carcinogen call reads like this: (Species: DOG, Route: ORAL, Tumor Site: Type of Lesion: URINARY BLADDER) “active; positive”; (Species: MOUSE, Route: SUBCUTANEOUS, Tumor Site: Type of Lesion: LIVER, INJECTION SITE) “active; positive”; (Species: MOUSE, Strain/Sex: B6C3F1/FEMALE, Route: INTRAPERITONEAL, Dose: 0, 0.3 UMOL/G IN TRIOCTANOIN ONCE ON DAY 1 FOLLOWED BY 0.4 UMOL/G ONCE ON DAY 8, 15 AND 22 (STUDY DURATION: 10 MO)) “inactive; negative”; (Species: MOUSE, Strain/Sex: B6C3F1/MALE, Route: INTRAPERITONEAL, Dose: 0, 0.017, 0.05, 0.15, 0.45 UMOL/G ONCE IN TRIOCTANOIN (STUDY DURATION: 10 MO), Dose: 0, 0.017, 0.05, 0.15, 0.45 UMOL/G ONCE IN TRIOCTANOIN (STUDY DURATION: 10 MO), Tumor Site: Type of Lesion: LIVER: HEPATOMA) “active; positive”; (Species: MOUSE, Strain/Sex: B6C3F1/MALE, Route: INTRAPERITONEAL, Dose: 0, 0.3 UMOL/G IN TRIOCTANOIN ONCE ON DAY 1 FOLLOWED BY 0.4 UMOL/G ONCE ON DAY 8, 15 AND 22 (STUDY DURATION: 10 MO), Tumor Site: Type of Lesion: LIVER: HEPATOMA) “active; positive”; (Species: RAT, Route: ORAL, Tumor Site: Type of Lesion: LIVER) “active; positive”. For the same molecule, the carcinogen call (Species: RAT, Strain/Sex: F344/MALE, Route: INTRAPERITONEAL, Dose: 0, 0.3 UMOL/G IN TRIOCTANOIN ONCE ON DAY 1 FOLLOWED BY 0.4 UMOL/G ONCE ON DAY 8, 15 AND 22 (STUDY DURATION: 10 MO)) was “inactive; negative”.

`NCC(=O)O`: the carcinogen call runs as follows: (Species: RAT, Strain/Sex: F344/FEMALE, Route: ORAL, Dose: 0, 2.5, 5% IN DRINKING WATER FOR 108 WK (STUDY DURATION: 108 WK), Dose: 0, 2.5, 5% IN DRINKING WATER FOR 108 WK (STUDY DURATION: 108 WK)) “inactive; negative”; (Species: RAT, Strain/Sex: F344/MALE, Route: ORAL, Dose: 0, 2.5, 5% IN DRINKING WATER FOR 108 WK (STUDY DURATION: 108 WK), Dose: 0, 2.5, 5% IN DRINKING WATER FOR 108 WK (STUDY DURATION: 108 WK)) “inactive; negative”.

With `C=C1C[C@]23C[C@@]1(O)CC[C@H]2[C@@]12C=C[C@H](O)[C@@](C)(C(=O)O1)[C@H]2[C@@H]3C(=O)O`, the carcinogen call (Species: MOUSE, Strain/Sex: SWISS/FEMALE, Route: GAVAGE, Dose: 0, 3 PPM IN 0.3 ML PHYSIOLOGICAL SALINE 2/WK FOR 22 MO (STUDY DURATION: 22 MO), Tumor Site: Type of Lesion: BREAST: ADENOCARCINOMA, SKIN: SEBACEOUS ADENOMA) is “active; positive” and the carcinogen call (Species: MOUSE, Strain/Sex: SWISS/MALE, Route: GAVAGE, Dose: 0, 3 PPM IN 0.3 ML PHYSIOLOGICAL SALINE 2/WK FOR 22 MO (STUDY DURATION: 22 MO), Tumor Site: Type of Lesion: SKIN: SEBACEOUS ADENOMA, LUNG: TUMOR) is “active; positive”.

Turning to `COC(=O)N(C(=O)N1CO[C@@]2(C(=O)OC)Cc3cc(Cl)ccc3C2=N1)c1ccc(OC(F)(F)F)cc1`, the carcinogen call is “inactive; negative” (Species: Mouse, Strain/Sex: Crl:CD-1(ICR)BR/Female (70/Group), Route: Oral, Dose: 0, 20, 100, 125/150/200 ppm for 18 mo, study duration 18 mo, Dose: 0, 20, 100, 125/150/200 ppm for 18 mo, study duration 18 mo) and “inactive; negative” (Species: Mouse, Strain/Sex: Crl:CD-1(ICR)BR/Male (70/Group), Route: Oral, Dose: 0, 20, 100, 125/150/200 ppm for 18 mo, study duration 18 mo, Dose: 0, 20, 100, 125/150/200 ppm for 18 mo, study duration 18 mo).

As for `C1=CC2OC2C=C1` (stereo not drawn), the carcinogen call is “inactive; negative” (Species: MOUSE, Strain/Sex: SWISS/FEMALE, Route: INTRAPERITONEAL, Dose: 0, 7.4, 18.6 UMOL ADMINISTERED AS 3 UNEQUAL DOSES (1/7, 2/7, AND 4/7 OF THE TOTAL DOSE) OVER A 2-WK PERIOD (STUDY DURATI, Dose: 0, 7.4, 18.6 UMOL ADMINISTERED AS 3 UNEQUAL DOSES (1/7, 2/7, AND 4/7 OF THE TOTAL DOSE) OVER A 2-WK PERIOD (STUDY DURATI) and “inactive; negative” (Species: MOUSE, Strain/Sex: SWISS/MALE, Route: INTRAPERITONEAL, Dose: 0, 7.4, 18.6 UMOL ADMINISTERED AS 3 UNEQUAL DOSES (1/7, 2/7, AND 4/7 OF THE TOTAL DOSE) OVER A 2-WK PERIOD (STUDY DURATI, Dose: 0, 7.4, 18.6 UMOL ADMINISTERED AS 3 UNEQUAL DOSES (1/7, 2/7, AND 4/7 OF THE TOTAL DOSE) OVER A 2-WK PERIOD (STUDY DURATI).

As for `CCC(=O)O[C@H]1CC[C@H]2[C@@H]3CCC4=CC(=O)CC[C@]4(C)[C@H]3CC[C@]12C`, the carcinogen call is “active; positive” (Species: MOUSE, Route: SUBCUTANEOUS IMPLANT, Tumor Site: Type of Lesion: CERVIX, UTERUS) and “active; positive” (Species: RAT, Route: SUBCUTANEOUS IMPLANT, Tumor Site: Type of Lesion: PROSTATE GLAND).

On to `COS(=O)(=O)OC`, for which the carcinogen call was “active; positive” (Species: RAT, Route: INHALATION, Tumor Site: Type of Lesion: NASAL CAVITY, BRAIN) and “active; positive” (Species: RAT, Route: SUBCUTANEOUS, Tumor Site: Type of Lesion: INJECTION SITE).

For the molecule `CCN(CC)C(=O)c1cccc(C)c1`, the carcinogen call by setting is: (Species: DOG, Strain/Sex: BEAGLE/FEMALE, Route: ORAL, Dose: 0, 30, 100, 400 MG/KG/D IN DIET FOR 52 WK (STUDY DURATION: 52 WK), Dose: 0, 30, 100, 400 MG/KG/D IN DIET FOR 52 WK (STUDY DURATION: 52 WK)) “inactive; negative”; (Species: DOG, Strain/Sex: BEAGLE/MALE, Route: ORAL, Dose: 0, 30, 100, 400 MG/KG/D IN DIET FOR 52 WK (STUDY DURATION: 52 WK), Dose: 0, 30, 100, 400 MG/KG/D IN DIET FOR 52 WK (STUDY DURATION: 52 WK)) “inactive; negative”; (Species: MOUSE, Strain/Sex: CD-1/MALE, Route: ORAL, Dose: 0, 250, 500, 1000 MG/KG/D IN DIET FOR 78 WK (STUDY DURATION: 78 WK), Dose: 0, 250, 500, 1000 MG/KG/D IN DIET FOR 78 WK (STUDY DURATION: 78 WK)) “inactive; negative”; (Species: Mouse, Strain/Sex: CD-1/Female (60/Group), Route: Oral, Dose: 0, 250, 500, 1000 mg/kg in diet for 78 wk, Dose: 0, 250, 500, 1000 mg/kg in diet for 78 wk) “inactive; negative”; (Species: Mouse, Strain/Sex: CD-1/Male (60/Group), Route: Oral, Dose: 0, 250, 500, 1000 mg/kg in diet for 78 wk, Dose: 0, 250, 500, 1000 mg/kg in diet for 78 wk) “inactive; negative”; (Species: RAT, Strain/Sex: CD-1/FEMALE, Route: ORAL, Dose: 0, 250, 500, 1000 MG/KG/D IN DIET FOR 78 WK (STUDY DURATION: 78 WK), Dose: 0, 250, 500, 1000 MG/KG/D IN DIET FOR 78 WK (STUDY DURATION: 78 WK)) “inactive; negative”. Also, the carcinogen call is “inactive; negative” (Species: RAT, Strain/Sex: CD/FEMALE, Route: ORAL, Dose: 0, 30, 100, 400 MG/KG/D IN DIET FOR 104 WK (STUDY DURATION: 104 WK), Dose: 0, 30, 100, 400 MG/KG/D IN DIET FOR 104 WK (STUDY DURATION: 104 WK)); “inactive; negative” (Species: RAT, Strain/Sex: CD/MALE, Route: ORAL, Dose: 0, 10, 30, 100 MG/KG/D IN DIET FOR 104 WK (STUDY DURATION: 104 WK), Dose: 0, 10, 30, 100 MG/KG/D IN DIET FOR 104 WK (STUDY DURATION: 104 WK)); “inactive; negative” (Species: Rat, Strain/Sex: Charles River CD/Female (60/Group), Route: Oral, Dose: 0, 10, 30, 100 mg/kg in diet for 2 yr, Dose: 0, 10, 30, 100 mg/kg in diet for 2 yr); “inactive; negative” (Species: Rat, Strain/Sex: Charles River CD/Male (60/Group), Route: Oral, Dose: 0, 10, 30, 100 mg/kg in diet for 2 yr, Dose: 0, 10, 30, 100 mg/kg in diet for 2 yr).

For the molecule `C[C@H](CCC(=O)O)[C@H]1CC[C@H]2[C@@H]3CC[C@@H]4C[C@H](O)CC[C@]4(C)[C@H]3CC[C@]12C`, the carcinogen call reads like this: (Species: MOUSE, Strain/Sex: B6C3F1/FEMALE, Route: GAVAGE, Dose: 0, 125, 250 MG/KG IN CORN OIL, Dose: 0, 125, 250 MG/KG IN CORN OIL) “inactive; negative”; (Species: MOUSE, Strain/Sex: B6C3F1/MALE, Route: GAVAGE, Dose: 0, 125, 250 MG/KG IN CORN OIL, Dose: 0, 125, 250 MG/KG IN CORN OIL) “inactive; negative”; (Species: RAT, Strain/Sex: F344/FEMALE, Route: GAVAGE, Dose: 0, 250, 500 MG/KG IN CORN OIL, Dose: 0, 250, 500 MG/KG IN CORN OIL) “inactive; negative”; (Species: RAT, Strain/Sex: F344/MALE, Route: GAVAGE, Dose: 0, 250, 500 MG/KG IN CORN OIL, Dose: 0, 250, 500 MG/KG IN CORN OIL) “inactive; negative”.

Values taken from PubChem BioAssay AID1259411 (Chemical Carcinogenesis Research Information System (CCRIS), 2018).
